Tests used:
phosphodiesterase 5 = molecular target: T1, phosphodiesterase 5 (Homo sapiens, UniProt O76074); test: PDE 5 activity in enzyme preparations from human thrombocytes; assay type: biochemical; conditions: human thrombocyte enzyme, 0.5 μM [3H]cGMP; read-out: IC50, inhibition of phosphodiesterase 5
T1 construct: The thrombocytes are lysed by ultrasound and used in the PDE 5 assay; from tissue; host or cells: human thrombocytes (platelets) from citrate-anticoagulated blood, lysed by ultrasound
Method: PDE 5 activity is determined in enzyme preparations from human thrombocytes. Human blood was anti-coagulated with citrate. By centrifuging at 700 g for 20 minutes at room temperature, the thrombocyte-rich plasma in the supernatant is separated from the erythrocytes and leukocytes. The thrombocytes are lysed by ultrasound and used in the PDE 5 assay. With a few modifications, the phosphodiesterase activity is determined by the method described by Thompson et al. (Thompson, W. J., Appleman, M. M., Assay of cyclic nucleotide phosphodiesterase and resolution of multiple molecular forms of the enzyme, Adv. Cycl. Nucl. Res. 1979, 10, 69-92). The reaction mixtures contain 50 mM of tris HCl (pH 7.4), 5.5 mM of MgCl2, the inhibitors in variable concentrations, the enzyme preparation and the fuirther components necessary for determining the individual isoenzymes PDE 5 (see below). The reaction is started by the addition of the substrate, 0.5 μM of [^3H] cGMP (approximately 6,000 CPM/test). The final volume is […]. Test substances are prepared as stock solutions in DMSO. The DMSO concentration in the reaction mixture is 1% v/v. The PDE 5 activity is not affected by this concentration of DMSO. After the reaction is started by the addition of substrate, the samples are incubated for 30 minutes at 37° C. The reaction is stopped by heating the test tubes for 2 minutes at 110° C. The samples remain for a further 10 minutes in ice. The addition of 30 μL of 5′-nucleotidase (1 mg/mL, from a Crotalus adamanteus snake poison suspension) is followed by an incubation for 10 minutes at 37° C. The samples are stopped on ice. After the addition of 400 μL of a (1:1:1) mixture of Dowex, water and ethanol, the samples are mixed well and incubated once again for 15 minutes on ice. The reaction vessels are centrifuged for 20 minutes at 3,000 g. Subsequently, 200 μL aliquots of the supernatant are transferred directly to scintillation vessels. After the addition of 3 mL of scintillator, the samples are measured in the Betacounter. The in each case nonspecific enzyme activities are determined in the presence of 100 μM of IBMX for the determination of the PDE 5 and subtracted from the test values.

human atrium tissue = test: Influencing cAMP and cGMP levels in human atrium strips; assay type: cell-based; conditions: 1.0 μmoles/L, 10 minutes
Method: (§1) Strips of human atrium and human corpus cavernosum are incubated for 10 minutes with the test compounds at a concentration of 1.0 μmoles/L The preparations are frozen with liquid nitrogen and the resulting levels of the cyclic nucleotides are determined.

[1] = test system: human corpus cavernosum tissue; test: Influencing cAMP and cGMP levels in human corpus cavernosum strips; assay type: cell-based; conditions: 1.0 μmoles/L, 10 minutes
Method: as §1

[2] = test system: Rat fetal lung fibroblast cells (RFL-6); test: Reinforcement of NO donor-induced intracellular cGMP increase in rat fetal lung fibroblasts; assay type: cell-based; conditions: RFL-6 cells
Excerpt: Rat fetal lung fibroblast cells (RFL-6) represent a suitable medium for investigating influence of the action of NO on the intracellular cGNP level (Ishii et al. 1991). The basic mechanism can be transferred to the smooth vascular musculature of the corpus cavemosum.
As a fuinction of the concentration, the inventive compounds reinforce the increase in the intracellular cGXD level induced by the NO donor S-nitroso-N-acetyl-D,L-penicillamine.

[3] = test system: human corpus cavernosum strips; test: In vitro relaxation of human corpus cavernosum pre-contracted with noradrenalin; assay type: cell-based; conditions: organ bath
Method: Strips of human corpus cavernosum are pre-contracted in an organ bath with noradrenalin. For test compounds, the relaxation is determined as a function of the concentration.

Compound	IC50 (phosphodiesterase 5)	melting point	also measured
5-(2,6-dichlrobenzyl)-1-ethyl-8-methoxy-3-methyl-imidazol[1,5-a]-pyrido[3,2-e]pyrazinone [Example 10]	132 nM		
5-cyclohexyl-1-ethyl-8-methoxy-3-methyl-imidazo[1,5-a]-pyrido[3,2-e]pyrazinone [Example 1]	25 nM		
CCc1nc(C)c2c(=O)n(Cc3ccccc3)c3ccc(OC)nc3n12 [Example 2, 5-benzyl-1-ethyl-8-methoxy-3-methyl-imidazo[1,5-a]-pyrido[3,2-e]pyrazinone]	203 nM	166 to 167 °C	
CCc1nc(C)c2c(=O)n(Cc3ccccc3F)c3ccc(OC)nc3n12 [Example 5, 1-ethyl-5-(2-fluorobenzyl)-8-methoxy-3-methyl-imidazo[1,5-a]-pyrido[3,2-e]pyrazinone]	59 nM	186 to 187 °C	
CCc1nc(C)c2c(=O)n(Cc3ccc(OC)cc3)c3ccc(OC)nc3n12 [Example 7, 1-ethyl-8-methoxy-5-(4-methoxybenzyl)-8-methoxy-3-methyl-imidazo[1,5-a]-pyrido[3,2-e]pyrazinone]	104 nM	156 to 158 °C	
CCc1nc(C)c2c(=O)n(Cc3ccc(F)cc3)c3ccc(OC)nc3n12 [Example 8]	126 nM	189 to 191 °C	
CCCc1nn(C)c2c(=O)[nH]c(-c3cc(S(=O)(=O)N4CCN(C)CC4)ccc3OCC)nc12 [sildenafil, reference compound]			increase of cAMP level (human atrium tissue): 240%; increase of cGMP level (human atrium tissue): 147%; increase of cAMP level [1]: 238%; increase of cGMP level [1]: 15%

Further lines, with some results ahead:

IC50 (phosphodiesterase 5)	melting point	Compound	also measured
112 nM	201 to 202 °C	CCc1nc(C)c2c(=O)n(Cc3ccc(Cl)cc3)c3ccc(OC)nc3n12 [Example 9, 5-(4-chlorobenzyl)-1-ethyl-8-methoxy-3-methyl-imidazo[1,5-a]-pyrido[3,2-e]pyrazinone]	
19 nM	197 to 200 °C	CCc1nc(C)c2c(=O)n(Cc3c(F)cccc3Cl)c3ccc(OC)nc3n12 [Example 11, 5-(2-chloro-6-fluorobenzyl)-1-ethyl-8-methoxy-3-methyl-imidazo[1,5-a]-pyrido[3,2-e]pyrazinone]	increase of cAMP level (human atrium tissue): 11%; increase of cGMP level (human atrium tissue): 247%; increase of cAMP level [1]: 80%; increase of cGMP level [1]: 214%
38 nM	177 to 180 °C	CCc1nc(C)c2c(=O)n(Cc3c(F)cccc3F)c3ccc(OC)nc3n12 [Example 12, 5-(2,6-difluorobenzyl)-1-ethyl-8-methoxy-3-methyl-imidazo[1,5-a]-pyrido[3,2-e]pyrazinone]	
16 nM	183 to 185 °C	CCc1nc(C)c2c(=O)n(Cc3c(F)ccc(F)c3F)c3ccc(OC)nc3n12 [Example 13, 1-ethyl-8-methoxy-3-methyl-5-(2,3,6-trifluorobenzyl)-imidazo[1,5-a]-pyrido[3,2-e]pyrazinone]	effectiveness relative to the nonspecific PDE inhibitor IBMX ([2]; cGMP level increase): 1000 times; increase in the intracellular cGMP level ([2]; compound at 0.10 μmoles/l, NO donor S-nitroso-N-acetyl-D,L-penicillamine): significantly induces an increase; EC50 [3]: 150 nM
8 nM	159 to 162 °C	CCCc1nc(C)c2c(=O)n(Cc3c(F)cccc3Cl)c3ccc(OC)nc3n12 [Example 14, 5-(2-chloro-6-fluorobenzyl)-8-methoxy-3-methyl-1-propyl-imidazo[1,5-a]-pyrido[3,2-e]pyrazinone]	
2 nM	171 to 172 °C	CCCc1nc(C)c2c(=O)n(Cc3c(F)cccc3F)c3ccc(OC)nc3n12 [Example 15, 5-(2,6-difluorobenzyl)-8-methoxy-3-methyl-1-propyl-imidazo[1,5-a]-pyrido[3,2-e]pyrazinone]	
5 nM	197 to 199 °C	CCCc1nc(C)c2c(=O)n(Cc3c(F)ccc(F)c3F)c3ccc(OC)nc3n12 [Example 16, 8-methoxy-3-methyl-1-propyl-5-(2,3,6-trifluorobenzyl)-imidazo[1,5-a]-pyrido[3,2-e]pyrazinone]	

— patent publication US6465465B1, “Process for the treatment of erectile dysfunction and product therefor” (Arzneimittelwerk Dresden GmbH, priority 2000, dated 2002)
